Assay in all cases: Thermal stability shift assay
Common to all, as to assay type: binding

One experiment concerns the target T1, PKD2 (Homo sapiens, UniProt Q9BZL6).
T1 sequence (Q9BZL6 1-878): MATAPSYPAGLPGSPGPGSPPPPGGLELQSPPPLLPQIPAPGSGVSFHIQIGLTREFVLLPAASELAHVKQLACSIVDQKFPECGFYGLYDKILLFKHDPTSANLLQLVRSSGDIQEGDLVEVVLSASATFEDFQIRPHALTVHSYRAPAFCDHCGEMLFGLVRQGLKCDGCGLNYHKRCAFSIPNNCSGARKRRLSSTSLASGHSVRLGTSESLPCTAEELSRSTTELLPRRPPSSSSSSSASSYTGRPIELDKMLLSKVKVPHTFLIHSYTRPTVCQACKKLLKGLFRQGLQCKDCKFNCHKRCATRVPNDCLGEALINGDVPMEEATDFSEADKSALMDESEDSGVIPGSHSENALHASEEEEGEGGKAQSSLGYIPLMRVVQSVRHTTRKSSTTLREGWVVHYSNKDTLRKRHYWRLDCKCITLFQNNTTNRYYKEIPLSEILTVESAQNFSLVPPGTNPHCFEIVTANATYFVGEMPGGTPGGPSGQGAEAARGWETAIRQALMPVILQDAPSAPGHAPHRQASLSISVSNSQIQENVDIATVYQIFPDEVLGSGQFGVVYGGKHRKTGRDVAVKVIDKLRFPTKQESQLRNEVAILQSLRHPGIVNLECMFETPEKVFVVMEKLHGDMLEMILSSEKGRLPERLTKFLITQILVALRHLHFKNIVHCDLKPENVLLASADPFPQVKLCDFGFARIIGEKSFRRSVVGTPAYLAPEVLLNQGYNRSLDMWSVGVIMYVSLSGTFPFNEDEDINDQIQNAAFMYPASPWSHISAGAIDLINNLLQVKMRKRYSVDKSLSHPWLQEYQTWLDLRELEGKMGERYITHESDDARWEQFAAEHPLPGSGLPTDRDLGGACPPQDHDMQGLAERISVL
Particulars: read-out: Tm shift PKD2. In short, it runs like this:
(§1)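 Thermal denaturation is measured by SyproOrange fluorescence in a real-time PCR machine. Each sample holds 2 μM protein and 10 μM compound in 10 mM HEPES pH 7.5 with 500 mM NaCl.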

The target of the next experiment is T2, FES (Homo sapiens, UniProt P07332).
T2 construct: purchased in-house (SGC Oxford thermal shift panel)
T2 sequence (P07332 whole entry): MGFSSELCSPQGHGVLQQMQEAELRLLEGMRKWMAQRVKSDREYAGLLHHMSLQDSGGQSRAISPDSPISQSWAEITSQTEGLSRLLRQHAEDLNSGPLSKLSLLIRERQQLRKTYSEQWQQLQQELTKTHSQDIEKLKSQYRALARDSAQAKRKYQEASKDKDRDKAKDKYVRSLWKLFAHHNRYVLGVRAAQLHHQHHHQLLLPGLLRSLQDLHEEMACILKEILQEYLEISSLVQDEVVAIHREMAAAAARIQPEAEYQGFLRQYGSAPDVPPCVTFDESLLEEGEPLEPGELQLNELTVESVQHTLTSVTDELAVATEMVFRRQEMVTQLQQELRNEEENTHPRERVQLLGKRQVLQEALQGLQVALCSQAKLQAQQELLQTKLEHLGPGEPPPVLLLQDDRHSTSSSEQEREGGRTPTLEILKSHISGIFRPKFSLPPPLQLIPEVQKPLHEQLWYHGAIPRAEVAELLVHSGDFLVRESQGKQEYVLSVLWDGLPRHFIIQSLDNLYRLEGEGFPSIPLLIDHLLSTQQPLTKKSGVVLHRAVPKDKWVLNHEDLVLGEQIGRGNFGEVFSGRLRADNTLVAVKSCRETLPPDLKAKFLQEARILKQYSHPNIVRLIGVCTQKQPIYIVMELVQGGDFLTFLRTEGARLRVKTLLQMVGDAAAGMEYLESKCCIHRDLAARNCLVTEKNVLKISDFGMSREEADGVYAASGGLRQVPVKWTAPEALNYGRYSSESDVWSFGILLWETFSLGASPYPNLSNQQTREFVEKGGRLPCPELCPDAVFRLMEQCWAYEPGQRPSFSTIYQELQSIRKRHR
Particulars: read-out: Tm shift FES. In short, it runs like this: as §1

The target of a further experiment is CaMK2a (Homo sapiens, UniProt Q9UQM7). Particulars: read-out: Tm shift CaMK2a. In short, it runs like this:
as §1

In the next experiment the target is CDK8 (Homo sapiens, UniProt P49336). Particulars: read-out: Tm shift CDK8. The method, boiled down: as §1
Chain of CDK8 (P49336 whole entry): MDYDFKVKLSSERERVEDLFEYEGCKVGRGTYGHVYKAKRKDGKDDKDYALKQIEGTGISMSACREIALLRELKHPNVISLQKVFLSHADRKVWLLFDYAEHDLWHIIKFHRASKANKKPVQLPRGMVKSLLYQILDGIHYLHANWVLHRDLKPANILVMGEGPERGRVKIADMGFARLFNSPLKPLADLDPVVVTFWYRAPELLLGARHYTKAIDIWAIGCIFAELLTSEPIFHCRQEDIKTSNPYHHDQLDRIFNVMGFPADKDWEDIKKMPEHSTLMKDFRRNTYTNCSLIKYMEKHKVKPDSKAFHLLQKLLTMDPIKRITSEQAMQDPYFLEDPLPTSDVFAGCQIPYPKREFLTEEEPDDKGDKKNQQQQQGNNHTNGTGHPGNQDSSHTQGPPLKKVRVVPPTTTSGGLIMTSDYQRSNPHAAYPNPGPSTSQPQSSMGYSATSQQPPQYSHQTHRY
In the next experiment the target is PKN2 (Homo sapiens, UniProt Q16513). The following applies: read-out: Tm shift PKN2. In short, it runs like this: as §1
Chain of PKN2 (Q16513 whole entry): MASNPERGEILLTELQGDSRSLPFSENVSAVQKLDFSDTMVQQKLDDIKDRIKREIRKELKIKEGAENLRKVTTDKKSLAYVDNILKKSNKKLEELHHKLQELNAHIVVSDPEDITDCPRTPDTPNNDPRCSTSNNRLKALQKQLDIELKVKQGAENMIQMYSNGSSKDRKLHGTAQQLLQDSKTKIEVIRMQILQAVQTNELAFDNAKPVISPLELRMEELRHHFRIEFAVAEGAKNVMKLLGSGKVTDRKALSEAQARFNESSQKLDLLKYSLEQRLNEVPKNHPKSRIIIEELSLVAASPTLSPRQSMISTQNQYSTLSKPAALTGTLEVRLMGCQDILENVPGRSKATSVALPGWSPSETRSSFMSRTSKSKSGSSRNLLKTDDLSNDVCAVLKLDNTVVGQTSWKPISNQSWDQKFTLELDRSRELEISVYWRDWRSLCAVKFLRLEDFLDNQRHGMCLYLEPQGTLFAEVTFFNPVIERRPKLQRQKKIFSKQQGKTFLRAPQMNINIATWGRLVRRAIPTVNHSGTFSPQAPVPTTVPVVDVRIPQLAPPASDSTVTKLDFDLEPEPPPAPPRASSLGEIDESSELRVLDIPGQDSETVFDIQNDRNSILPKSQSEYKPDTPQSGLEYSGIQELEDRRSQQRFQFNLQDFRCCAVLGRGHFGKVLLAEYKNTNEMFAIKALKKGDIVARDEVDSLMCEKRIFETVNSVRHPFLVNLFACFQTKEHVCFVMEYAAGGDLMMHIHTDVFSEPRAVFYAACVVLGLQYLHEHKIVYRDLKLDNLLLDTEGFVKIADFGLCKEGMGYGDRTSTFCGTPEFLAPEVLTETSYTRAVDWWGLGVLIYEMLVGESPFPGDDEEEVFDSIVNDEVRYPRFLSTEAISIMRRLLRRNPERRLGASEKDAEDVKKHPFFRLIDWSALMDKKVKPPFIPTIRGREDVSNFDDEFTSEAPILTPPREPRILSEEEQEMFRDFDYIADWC
In a further experiment the target is AKT3 (Homo sapiens, UniProt Q9Y243). Particulars: read-out: Tm shift AKT3. In short, it runs like this:
as §1

Another experiment has as its target T3, NDR1 (Homo sapiens, UniProt Q15208).
T3 construct: purchased in-house (SGC Oxford thermal shift panel)
Particulars: read-out: Tm shift NDR1. The method, boiled down:
as §1

The next experiment has as its target STK33 (Homo sapiens, UniProt Q9BYT3). The following applies: read-out: Tm shift STK33. In short, it runs like this: as §1
In a further experiment the target is T4, eEF2K (Homo sapiens, UniProt O00418).
T4 construct: purchased in-house (SGC Oxford thermal shift panel)
T4 sequence (O00418 1-725): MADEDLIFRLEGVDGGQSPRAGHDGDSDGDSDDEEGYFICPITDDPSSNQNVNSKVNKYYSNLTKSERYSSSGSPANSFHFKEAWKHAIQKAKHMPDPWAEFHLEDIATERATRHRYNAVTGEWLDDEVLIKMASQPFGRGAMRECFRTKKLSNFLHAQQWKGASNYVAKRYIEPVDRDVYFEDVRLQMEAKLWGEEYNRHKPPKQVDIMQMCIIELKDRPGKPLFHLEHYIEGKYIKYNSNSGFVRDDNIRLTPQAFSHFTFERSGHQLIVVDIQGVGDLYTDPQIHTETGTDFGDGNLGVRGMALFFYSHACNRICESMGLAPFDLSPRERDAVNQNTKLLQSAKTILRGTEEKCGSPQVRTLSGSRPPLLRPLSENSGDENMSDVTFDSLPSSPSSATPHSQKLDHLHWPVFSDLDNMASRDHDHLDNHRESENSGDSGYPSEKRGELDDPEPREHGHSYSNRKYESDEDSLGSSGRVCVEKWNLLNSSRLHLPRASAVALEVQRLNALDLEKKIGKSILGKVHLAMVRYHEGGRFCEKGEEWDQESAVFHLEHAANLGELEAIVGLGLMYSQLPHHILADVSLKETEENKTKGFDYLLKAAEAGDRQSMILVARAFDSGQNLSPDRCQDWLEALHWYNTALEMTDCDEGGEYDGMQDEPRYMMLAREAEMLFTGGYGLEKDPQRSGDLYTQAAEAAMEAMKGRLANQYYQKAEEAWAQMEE
The following applies: read-out: Tm shift eEF2K. The method, boiled down:
as §1

The next experiment concerns the target T5, DRAK2 (Homo sapiens, UniProt O94768).
T5 construct: purchased in-house (SGC Oxford thermal shift panel)
T5 sequence (O94768 1-372): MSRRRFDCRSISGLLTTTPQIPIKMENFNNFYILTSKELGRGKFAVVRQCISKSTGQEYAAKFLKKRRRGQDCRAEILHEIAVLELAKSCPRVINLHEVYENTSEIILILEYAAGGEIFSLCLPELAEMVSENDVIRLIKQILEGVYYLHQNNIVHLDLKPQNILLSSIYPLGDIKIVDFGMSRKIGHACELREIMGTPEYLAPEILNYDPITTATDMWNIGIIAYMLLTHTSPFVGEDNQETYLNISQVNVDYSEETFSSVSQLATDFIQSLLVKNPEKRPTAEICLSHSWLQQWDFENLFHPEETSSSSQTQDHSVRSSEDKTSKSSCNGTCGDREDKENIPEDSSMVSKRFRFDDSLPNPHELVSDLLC
The following applies: read-out: Tm shift DRAK2. In short, it runs like this:
as §1

Another experiment has as its target T6, DAPK3 (Homo sapiens, UniProt O43293).
T6 construct: purchased in-house (SGC Oxford thermal shift panel)
Particulars: read-out: Tm shift DAPK3. The method, boiled down:
as §1

Where two headings read alike, the source gives them in different places.

Chain of STK33 (Q9BYT3 whole entry): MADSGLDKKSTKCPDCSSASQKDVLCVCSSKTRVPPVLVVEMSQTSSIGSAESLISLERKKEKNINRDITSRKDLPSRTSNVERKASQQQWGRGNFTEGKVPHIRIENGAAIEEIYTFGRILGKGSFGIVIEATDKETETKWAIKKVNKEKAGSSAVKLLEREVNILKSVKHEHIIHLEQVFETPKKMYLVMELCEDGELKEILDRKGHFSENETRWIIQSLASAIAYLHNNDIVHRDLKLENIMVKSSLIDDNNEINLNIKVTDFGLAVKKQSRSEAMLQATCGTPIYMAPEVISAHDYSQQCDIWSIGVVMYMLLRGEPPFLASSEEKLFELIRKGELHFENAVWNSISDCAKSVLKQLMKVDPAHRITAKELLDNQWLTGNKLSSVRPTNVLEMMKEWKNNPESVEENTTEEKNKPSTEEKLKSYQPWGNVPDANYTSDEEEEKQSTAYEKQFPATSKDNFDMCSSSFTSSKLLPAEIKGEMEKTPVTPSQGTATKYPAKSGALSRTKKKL
Chain of CaMK2a (Q9UQM7 whole entry): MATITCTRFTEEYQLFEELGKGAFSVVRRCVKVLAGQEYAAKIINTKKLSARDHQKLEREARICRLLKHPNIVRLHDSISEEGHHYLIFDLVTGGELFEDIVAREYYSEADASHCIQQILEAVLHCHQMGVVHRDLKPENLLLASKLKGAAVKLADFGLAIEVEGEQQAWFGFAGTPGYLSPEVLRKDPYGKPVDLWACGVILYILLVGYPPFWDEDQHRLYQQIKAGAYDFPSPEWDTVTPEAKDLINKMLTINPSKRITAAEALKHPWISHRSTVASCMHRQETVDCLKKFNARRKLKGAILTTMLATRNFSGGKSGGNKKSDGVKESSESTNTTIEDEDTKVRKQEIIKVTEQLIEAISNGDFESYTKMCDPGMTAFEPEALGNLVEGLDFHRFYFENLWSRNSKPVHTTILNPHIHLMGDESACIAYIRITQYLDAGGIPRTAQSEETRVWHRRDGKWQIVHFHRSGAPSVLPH
Chain of AKT3 (Q9Y243 whole entry): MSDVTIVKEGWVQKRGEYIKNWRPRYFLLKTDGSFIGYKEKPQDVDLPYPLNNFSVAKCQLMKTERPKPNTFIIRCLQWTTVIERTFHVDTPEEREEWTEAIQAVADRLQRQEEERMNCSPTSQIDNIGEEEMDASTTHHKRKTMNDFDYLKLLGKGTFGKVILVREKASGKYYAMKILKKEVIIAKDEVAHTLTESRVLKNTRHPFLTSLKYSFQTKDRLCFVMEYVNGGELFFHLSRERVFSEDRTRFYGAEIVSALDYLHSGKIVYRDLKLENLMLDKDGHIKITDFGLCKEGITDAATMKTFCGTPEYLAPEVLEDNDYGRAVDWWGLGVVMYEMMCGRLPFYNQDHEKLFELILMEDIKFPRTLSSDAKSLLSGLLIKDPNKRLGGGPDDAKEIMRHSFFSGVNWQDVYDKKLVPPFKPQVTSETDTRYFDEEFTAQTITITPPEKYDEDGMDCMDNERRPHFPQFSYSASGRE
T6 sequence (O43293 whole entry): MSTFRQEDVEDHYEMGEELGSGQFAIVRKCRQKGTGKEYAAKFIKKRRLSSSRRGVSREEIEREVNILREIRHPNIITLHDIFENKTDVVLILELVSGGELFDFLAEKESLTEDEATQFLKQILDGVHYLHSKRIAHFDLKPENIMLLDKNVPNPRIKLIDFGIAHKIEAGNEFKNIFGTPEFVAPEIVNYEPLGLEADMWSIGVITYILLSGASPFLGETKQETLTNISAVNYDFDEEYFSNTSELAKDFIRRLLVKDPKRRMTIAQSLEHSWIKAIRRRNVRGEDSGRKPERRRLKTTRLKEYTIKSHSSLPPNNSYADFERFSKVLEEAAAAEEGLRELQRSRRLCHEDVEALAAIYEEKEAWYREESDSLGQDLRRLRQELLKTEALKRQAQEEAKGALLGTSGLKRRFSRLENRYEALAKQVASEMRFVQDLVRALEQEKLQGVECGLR
T3 sequence (Q15208 whole entry): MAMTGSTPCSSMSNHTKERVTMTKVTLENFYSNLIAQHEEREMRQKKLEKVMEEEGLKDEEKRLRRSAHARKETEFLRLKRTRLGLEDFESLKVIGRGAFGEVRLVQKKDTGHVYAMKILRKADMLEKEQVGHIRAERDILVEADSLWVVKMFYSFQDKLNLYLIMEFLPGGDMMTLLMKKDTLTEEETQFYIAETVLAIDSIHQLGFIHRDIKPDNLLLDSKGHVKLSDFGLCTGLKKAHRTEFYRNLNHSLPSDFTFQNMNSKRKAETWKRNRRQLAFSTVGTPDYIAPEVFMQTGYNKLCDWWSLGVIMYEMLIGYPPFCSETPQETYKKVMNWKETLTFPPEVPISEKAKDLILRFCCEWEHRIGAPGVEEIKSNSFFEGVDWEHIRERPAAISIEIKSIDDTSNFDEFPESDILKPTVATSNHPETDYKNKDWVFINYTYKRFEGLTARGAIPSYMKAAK

Take `CCOC(=O)c1c(/C(C#N)=C\N)c2ccc(Cl)c(Cl)c2n1C` [KH-CB19, (E)-Ethyl 3-(2-Amino-1-Cyanovinyl)-6,7-Dichloro-1-Methyl-1H-Indole-2-Carboxylate]: the ΔTm at 10 µM is 0.1 °C on PKD2; -0.3 °C on FES; 0.5 °C on CaMK2a; 1.5 °C on CDK8; 0.6 °C on PKN2; -0.2 °C on AKT3. Besides, the ΔTm at 10 µM was 0.2 °C at NDR1; 0.3 °C at STK33; -0.1 °C at eEF2K; 1.7 °C on DRAK2; 2.2 °C on DAPK3.
In the case of `NC1=NC(=O)/C(=C2\CCNC(=O)c3[nH]c(Br)cc32)N1` [Hymenialdisine, hymenialdisine, reference compound], the ΔTm at 10 µM at PKD2 (inhibitor 10 μM) came out at 0.8 °C; at FES (inhibitor 10 μM), 0.7 °C; on CaMK2a (inhibitor 10 μM) it was 0.4 °C; on CDK8 (inhibitor 10 μM) it was 0.1 °C; on PKN2 (inhibitor 10 μM), 0.8 °C; at AKT3 (inhibitor 10 μM) it was 1.3 °C. For the same compound, the ΔTm at 10 µM is 1 °C on NDR1 (inhibitor 10 μM); 3.9 °C at STK33 (inhibitor 10 μM); -0.1 °C on eEF2K (inhibitor 10 μM); 13 °C at DRAK2 (inhibitor 10 μM); 7.6 °C on DAPK3 (inhibitor 10 μM).
As for `CCOC(=O)c1c(C(C#N)=CN)c2ccc(Cl)c(Cl)c2n1C` (mixture of isomers) [KH-CB20, (E/Z)-Ethyl 3-(2-Amino-1-Cyanovinyl)-6,7-Dichloro-1-Methyl-1H-Indole-2-Carboxylate], the ΔTm at 10 µM on PKD2 was -0.2 °C; on FES, -0.3 °C; at CaMK2a it was 0.7 °C; on CDK8, 1.3 °C; on PKN2, 0.1 °C; at AKT3, -0.3 °C. Moreover, the ΔTm at 10 µM was 0.3 °C on NDR1; 0.8 °C on STK33; -0.1 °C on eEF2K; 1.5 °C on DRAK2; 2.2 °C on DAPK3.
Regarding `Cn1c2c(Cl)c(Cl)ccc2c2c(C#N)c[nH]c(=O)c21` [compound 3, 7,8-Dichloro-9-Methyl-1-Oxo-2,9-Dihydro-1H-Pyrido[3,4-b]Indole-4-Carbonitrile], the ΔTm at 10 µM came to 0.1 °C at PKD2 (inhibitor 10 μM); 0 °C on FES (inhibitor 10 μM); 0.5 °C at CaMK2a (inhibitor 10 μM); 2.5 °C at CDK8 (inhibitor 10 μM); 2.3 °C on PKN2 (inhibitor 10 μM); 0.1 °C at AKT3 (inhibitor 10 μM). Moreover, the ΔTm at 10 µM at NDR1 (inhibitor 10 μM) is 0.7 °C; on STK33 (inhibitor 10 μM) it was 1.1 °C; at eEF2K (inhibitor 10 μM), 0.3 °C; on DRAK2 (inhibitor 10 μM), 0.9 °C; at DAPK3 (inhibitor 10 μM) it was 2 °C.
On to `CCOC(=O)c1c(C(C#N)=CN(C)C)c2ccc(Cl)c(Cl)c2n1C` (mixture of isomers) [compound 2, (E/Z)-Ethyl 6,7-Dichloro-3-[1-Cyano-2-(Dimethylamino)Vinyl]-1-Methyl-1H-Indole-2-Carboxylate], for which the ΔTm at 10 µM was 0 °C on PKD2 (inhibitor 10 μM); 0 °C at FES (inhibitor 10 μM); 1 °C on CaMK2a (inhibitor 10 μM); 0.4 °C on CDK8 (inhibitor 10 μM); -0.5 °C on PKN2 (inhibitor 10 μM); -0.2 °C at AKT3 (inhibitor 10 μM). Besides, the ΔTm at 10 µM was 0.4 °C at NDR1 (inhibitor 10 μM); 0.7 °C at STK33 (inhibitor 10 μM); -0.4 °C at eEF2K (inhibitor 10 μM); 0 °C on DRAK2 (inhibitor 10 μM); 0.3 °C at DAPK3 (inhibitor 10 μM).

Values taken from PMC3145970, “Specific CLK Inhibitors from a Novel Chemotype for Regulation of Alternative Splicing” (Chemistry & Biology, 2011).
